Tested on: MV-4-11 cells
Test: Gene expression microarray analysis (Affymetrix PrimeView) and GSEA
Format: cell-based, human
Design: RFU PODN (11730768_x_at) / Fold change /veh PODN (11730768_x_at) / RFU LINC00158 (11744669_a_at) / Fold change /veh LINC00158 (11744669_a_at) / RFU DUSP10 (11751237_a_at) / Fold change /veh DUSP10 (11751237_a_at) / RFU ID3 (11757404_x_at) / Fold change /veh ID3 (11757404_x_at) / RFU PLEKHG5 (11737974_s_at) / Fold change /veh PLEKHG5 (11737974_s_at) / RFU LRRC4B (11730491_at) / Fold change /veh LRRC4B (11730491_at) / RFU GIMAP4 (11747438_a_at) / Fold change /veh GIMAP4 (11747438_a_at) / RFU KRT8 (11758183_x_at) / Fold change /veh KRT8 (11758183_x_at) / RFU CNN1 (11734310_a_at) / Fold change /veh CNN1 (11734310_a_at) / RFU VPS37D (11726825_at) / Fold change /veh VPS37D (11726825_at) / RFU C10orf10 (11716522_x_at) / Fold change /veh C10orf10 (11716522_x_at) / RFU KIR2DL2 /// KIR2DL4 /// KIR2DL5A /// KIR2DL5B /// KIR2DS1 /// KIR2DS2 /// KIR2DS3 /// KIR2DS4 /// KIR3DL3 /// KIR3DL3 /// KIR3DS1 (11738374_at) / Fold change /veh KIR2DL2 /// KIR2DL4 /// KIR2DL5A /// KIR2DL5B /// KIR2DS1 /// KIR2DS2 /// KIR2DS3 /// KIR2DS4 /// KIR3DL3 /// KIR3DL3 /// KIR3DS1 (11738374_at) / RFU C1QL1 (11718748_at) / Fold change /veh C1QL1 (11718748_at) / RFU TMPRSS4 (11747572_a_at) / Fold change /veh TMPRSS4 (11747572_a_at) / RFU HAMP (11756126_x_at) / Fold change /veh HAMP (11756126_x_at) / RFU RNFT2 (11725882_a_at) / Fold change /veh RNFT2 (11725882_a_at) / RFU NR4A2 (11747474_a_at) / Fold change /veh NR4A2 (11747474_a_at) / RFU ABCC12 (11746883_a_at) / Fold change /veh ABCC12 (11746883_a_at) / RFU TMEM136 (11760407_x_at) / Fold change /veh TMEM136 (11760407_x_at) / RFU CLDN22 /// WWC2 (11732394_at) / Fold change /veh CLDN22 /// WWC2 (11732394_at) / RFU HLA-DPB1 (11760878_x_at) / Fold change /veh HLA-DPB1 (11760878_x_at) / RFU SPINT1 (11716480_a_at) / Fold change /veh SPINT1 (11716480_a_at) / RFU GAP43 (11754022_s_at) / Fold change /veh GAP43 (11754022_s_at) / RFU A4GNT (11735810_at) / Fold change /veh A4GNT (11735810_at) / RFU PRB3 (11715151_x_at) / Fold change /veh PRB3 (11715151_x_at) / RFU TUBB4B (11761932_at) / Fold change /veh TUBB4B (11761932_at) / RFU CAPN14 (11732068_a_at) / Fold change /veh CAPN14 (11732068_a_at) / RFU TMCC2 (11721928_a_at) / Fold change /veh TMCC2 (11721928_a_at) / RFU IRGQ (11745062_a_at) / Fold change /veh IRGQ (11745062_a_at) / RFU FAM174B (11720279_a_at) / Fold change /veh FAM174B (11720279_a_at) / RFU TMPRSS4 (11748680_a_at) / Fold change /veh TMPRSS4 (11748680_a_at) / RFU FAM212B (11763350_a_at) / Fold change /veh FAM212B (11763350_a_at) / RFU PLEKHG5 (11743358_a_at) / Fold change /veh PLEKHG5 (11743358_a_at) / RFU ZSCAN30 (11745921_a_at) / Fold change /veh ZSCAN30 (11745921_a_at) / RFU CMKLR1 (11741424_a_at) / Fold change /veh CMKLR1 (11741424_a_at) / RFU LOC101060620 /// MAPK8IP1 (11723275_at) / Fold change /veh LOC101060620 /// MAPK8IP1 (11723275_at) / RFU SPTSSB (11747773_x_at) / Fold change /veh SPTSSB (11747773_x_at) / RFU PRSS12 (11739890_at) / Fold change /veh PRSS12 (11739890_at) / RFU BIN1 (11741810_x_at) / Fold change /veh BIN1 (11741810_x_at) / RFU WNT11 (11732464_a_at) / Fold change /veh WNT11 (11732464_a_at) / RFU C10orf10 (11716521_a_at) / Fold change /veh C10orf10 (11716521_a_at) / RFU C5orf56 (11738089_at) / Fold change /veh C5orf56 (11738089_at) / RFU CYB561 (11721691_x_at) / Fold change /veh CYB561 (11721691_x_at) / RFU ANKRD19P (11752326_a_at) / Fold change /veh ANKRD19P (11752326_a_at) / RFU OR2T12 /// OR2T33 /// OR2T8 (11738714_s_at) / Fold change /veh OR2T12 /// OR2T33 /// OR2T8 (11738714_s_at) / RFU VCAN (11748164_a_at) / Fold change /veh VCAN (11748164_a_at) / RFU JSRP1 (11732532_at) / Fold change /veh JSRP1 (11732532_at) / RFU KRTAP10-11 (11738290_x_at) / Fold change /veh KRTAP10-11 (11738290_x_at) / RFU MYO3A (11730013_a_at) / Fold change /veh MYO3A (11730013_a_at) / RFU EBF3 (11725865_a_at) / Fold change /veh EBF3 (11725865_a_at) / RFU CAMK2N1 (11719241_x_at) / Fold change /veh CAMK2N1 (11719241_x_at) / RFU C5orf56 (11738088_a_at) / Fold change /veh C5orf56 (11738088_a_at) / RFU OLFML3 (11715873_a_at) / Fold change /veh OLFML3 (11715873_a_at) / RFU LOC100653217 /// NTM (11731650_a_at) / Fold change /veh LOC100653217 /// NTM (11731650_a_at) / RFU MAPK11 (11762145_a_at) / Fold change /veh MAPK11 (11762145_a_at) / RFU FIZ1 (11724087_x_at) / Fold change /veh FIZ1 (11724087_x_at) / RFU OASL (11726364_x_at) / Fold change /veh OASL (11726364_x_at) / RFU SOX15 (11748057_x_at) / Fold change /veh SOX15 (11748057_x_at) / RFU CD79A (11719716_a_at) / Fold change /veh CD79A (11719716_a_at) / RFU HIST1H1D (11736915_at) / Fold change /veh HIST1H1D (11736915_at) / RFU CASKIN2 (11723855_a_at) / Fold change /veh CASKIN2 (11723855_a_at) / RFU LOC730098 (11760151_x_at) / Fold change /veh LOC730098 (11760151_x_at) / RFU OR4N2 (11742367_at) / Fold change /veh OR4N2 (11742367_at) / RFU PRRT2 (11749266_a_at) / Fold change /veh PRRT2 (11749266_a_at) / RFU SNX32 (11753110_a_at) / Fold change /veh SNX32 (11753110_a_at) / RFU CDHR5 (11726645_a_at) / Fold change /veh CDHR5 (11726645_a_at) / RFU RCAN1 (11760418_a_at) / Fold change /veh RCAN1 (11760418_a_at) / RFU FAM167A (11723789_a_at) / Fold change /veh FAM167A (11723789_a_at) / RFU FAM26E (11764081_at) / Fold change /veh FAM26E (11764081_at) / RFU ISYNA1 (11749810_s_at) / Fold change /veh ISYNA1 (11749810_s_at) / RFU ACY1 (11761880_at) / Fold change /veh ACY1 (11761880_at) / RFU 11764098_at / Fold change /veh 11764098_at / RFU SAMD14 (11745864_x_at) / Fold change /veh SAMD14 (11745864_x_at) / RFU NPB (11741838_a_at) / Fold change /veh NPB (11741838_a_at) / RFU TMPRSS6 (11731388_a_at) / Fold change /veh TMPRSS6 (11731388_a_at) / RFU KRTAP10-2 (11738614_at) / Fold change /veh KRTAP10-2 (11738614_at) / RFU ARHGAP8 /// PRR5-ARHGAP8 (11727945_x_at) / Fold change /veh ARHGAP8 /// PRR5-ARHGAP8 (11727945_x_at) / RFU KRTAP5-7 /// NADSYN1 (11734609_at) / Fold change /veh KRTAP5-7 /// NADSYN1 (11734609_at) / RFU RASL12 (11751679_a_at) / Fold change /veh RASL12 (11751679_a_at) / RFU CDKN2B (11736163_a_at) / Fold change /veh CDKN2B (11736163_a_at) / RFU PRF1 (11729649_at) / Fold change /veh PRF1 (11729649_at) / RFU, ZNF638 /// ZNF638-IT1 / Fold change vs veh, ZNF638 /// ZNF638-IT1 / RFU, PANK3 / Fold change vs veh, PANK3 / RFU, SH3YL1 / Fold change vs veh, SH3YL1 / RFU, ZEB2 / Fold change vs veh, ZEB2 / RFU, NRIP1 / Fold change vs veh, NRIP1 / RFU, PTTG1IP / Fold change vs veh, PTTG1IP / RFU, CAPN2 / Fold change vs veh, CAPN2 / RFU, MED14 / Fold change vs veh, MED14 / RFU, SNORA58 / Fold change vs veh, SNORA58 / RFU, C1orf63 / Fold change vs veh, C1orf63 / RFU, LRRFIP1 / Fold change vs veh, LRRFIP1 / RFU, NDUFAF7 / Fold change vs veh, NDUFAF7 / RFU, SLC12A2 / Fold change vs veh, SLC12A2 / RFU, IBTK / Fold change vs veh, IBTK / RFU, ESF1 / Fold change vs veh, ESF1 / Fold change vs veh, TMEM50B / RFU, TAOK1 / Fold change vs veh, TAOK1 / RFU, ACBD3 / Fold change vs veh, ACBD3 / RFU, TMA16 / Fold change vs veh, TMA16 / RFU, RWDD3 / Fold change vs veh, RWDD3 / RFU, BCAT1 / Fold change vs veh, BCAT1 / RFU, EDEM3 / Fold change vs veh, EDEM3 / RFU, TMEM33 / Fold change vs veh, TMEM33 / RFU, WDR75 / Fold change vs veh, WDR75 / RFU, AHCTF1 / Fold change vs veh, AHCTF1 / RFU, TFRC / Fold change vs veh, TFRC / RFU, ZDHHC17 / Fold change vs veh, ZDHHC17 / RFU, NOM1 / Fold change vs veh, NOM1 / RFU, ARL8B / Fold change vs veh, ARL8B / RFU, ZBTB11 / Fold change vs veh, ZBTB11 / RFU, TAMM41 / Fold change vs veh, TAMM41 / RFU, KIAA1704 /// LOC100996395 / Fold change vs veh, KIAA1704 /// LOC100996395 / RFU, ING1 / Fold change vs veh, ING1 / RFU, TRMT61B / Fold change vs veh, TRMT61B / RFU, FUBP3 / Fold change vs veh, FUBP3 / RFU, TP53 / Fold change vs veh, TP53 / RFU, TNKS2 / Fold change vs veh, TNKS2 / RFU, ZFP14 / Fold change vs veh, ZFP14 / RFU, ACTR2 / Fold change vs veh, ACTR2 / RFU, PPP3R1 / Fold change vs veh, PPP3R1 / RFU, PIK3R1 / Fold change vs veh, PIK3R1 / RFU, HNRNPA1 / Fold change vs veh, HNRNPA1 / RFU, RNF170 / Fold change vs veh, RNF170 / RFU, ZNF28 / Fold change vs veh, ZNF28 / RFU, RNGTT / Fold change vs veh, RNGTT / RFU, OGT / Fold change vs veh, OGT / RFU, BRD1 / Fold change vs veh, BRD1 / RFU, MARS / Fold change vs veh, MARS / RFU, ZNF655 / Fold change vs veh, ZNF655 / RFU, FAHD1 / Fold change vs veh, FAHD1 / RFU, BDP1 / Fold change vs veh, BDP1 / RFU, LRRCC1 / Fold change vs veh, LRRCC1 / RFU, ARID1A / Fold change vs veh, ARID1A / RFU, ZNF146 / Fold change vs veh, ZNF146 / RFU, ZNF330 / Fold change vs veh, ZNF330 / RFU, GPN3 / Fold change vs veh, GPN3 / RFU, C9orf123 / Fold change vs veh, C9orf123 / RFU, N4BP2L2 / Fold change vs veh, N4BP2L2 / RFU, ARFIP1 / Fold change vs veh, ARFIP1 / RFU, FAM179B / Fold change vs veh, FAM179B / RFU, BCL10 / Fold change vs veh, BCL10 / RFU, UHRF1BP1L / Fold change vs veh, UHRF1BP1L / RFU, BET1 / Fold change vs veh, BET1 / RFU, CNOT2 / Fold change vs veh, CNOT2 / RFU, ZNF268 / Fold change vs veh, ZNF268 / Fold change vs veh, ZNF507 / RFU, DGCR2 / Fold change vs veh, DGCR2 / RFU, WDSUB1 / Fold change vs veh, WDSUB1 / Fold change vs veh, HSP90B1 /// MIR3652 / RFU, ADSS / Fold change vs veh, ADSS / RFU, GK / Fold change vs veh, GK / RFU, ZNF148 / Fold change vs veh, ZNF148 / RFU, TAF9 / Fold change vs veh, TAF9 / RFU, SLC1A5 / Fold change vs veh, SLC1A5 / RFU, SLMO2 / Fold change vs veh, SLMO2 / RFU, ABCC4 / Fold change vs veh, ABCC4 / RFU, LOC101060439 /// RAP1B / Fold change vs veh, LOC101060439 /// RAP1B / RFU, RFX7 / Fold change vs veh, RFX7 / RFU, GTPBP10 / Fold change vs veh, GTPBP10 / RFU, CNEP1R1 / Fold change vs veh, CNEP1R1 / RFU, BIVM-ERCC5 /// ERCC5 / Fold change vs veh, BIVM-ERCC5 /// ERCC5 / RFU, ILF3 / Fold change vs veh, ILF3 / RFU 11762660_at / Fold change /veh 11762660_at / RFU VCAN (11757783_s_at) / Fold change /veh VCAN (11757783_s_at) / RFU DDX43 (11728927_at) / Fold change /veh DDX43 (11728927_at) / RFU KRT8 (11758188_x_at) / Fold change /veh KRT8 (11758188_x_at) / RFU NKD1 (11759106_at) / Fold change /veh NKD1 (11759106_at) / RFU SRD5A1 (11742802_a_at) / Fold change /veh SRD5A1 (11742802_a_at) / RFU TPSAB1 /// TPSB2 (11721975_s_at) / Fold change /veh TPSAB1 /// TPSB2 (11721975_s_at) / RFU GSTM3 (11746129_a_at) / Fold change /veh GSTM3 (11746129_a_at) / RFU IL23R (11737362_x_at) / Fold change /veh IL23R (11737362_x_at) / RFU TMEM51 (11727254_a_at) / Fold change /veh TMEM51 (11727254_a_at) / RFU PIWIL2 (11732686_x_at) / Fold change /veh PIWIL2 (11732686_x_at) / RFU ORM1 (11744905_x_at) / Fold change /veh ORM1 (11744905_x_at) / RFU CCDC152 (11743942_at) / Fold change /veh CCDC152 (11743942_at) / RFU ECM1 (11717891_a_at) / Fold change /veh ECM1 (11717891_a_at) / RFU IL23R (11748794_a_at) / Fold change /veh IL23R (11748794_a_at) / RFU TNFAIP8L3 (11732012_x_at) / Fold change /veh TNFAIP8L3 (11732012_x_at) / RFU MBOAT4 (11741988_at) / Fold change /veh MBOAT4 (11741988_at) / RFU 11764193_at / Fold change /veh 11764193_at / RFU TMEM53 (11763286_at) / Fold change /veh TMEM53 (11763286_at) / RFU MAGEB2 (11727129_at) / Fold change /veh MAGEB2 (11727129_at) / RFU TMEM200A (11744735_a_at) / Fold change /veh TMEM200A (11744735_a_at) / RFU CCDC152 (11751479_a_at) / Fold change /veh CCDC152 (11751479_a_at) / RFU FAM211A (11726209_a_at) / Fold change /veh FAM211A (11726209_a_at) / RFU RGS16 (11746705_a_at) / Fold change /veh RGS16 (11746705_a_at) / RFU VCAN (11755009_s_at) / Fold change /veh VCAN (11755009_s_at) / RFU RHOB (11743442_s_at) / Fold change /veh RHOB (11743442_s_at) / RFU RGS16 (11720943_a_at) / Fold change /veh RGS16 (11720943_a_at) / RFU RGS16 (11720944_at) / Fold change /veh RGS16 (11720944_at) / RFU, VPS4B / Fold change vs veh, VPS4B / RFU, CREB1 / Fold change vs veh, CREB1 / RFU, DNAJC13 / Fold change vs veh, DNAJC13 / RFU, GNAQ / Fold change vs veh, GNAQ / RFU, CDK5R1 / Fold change vs veh, CDK5R1 / RFU, ZRANB3 / Fold change vs veh, ZRANB3 / RFU, CUL4A / Fold change vs veh, CUL4A / RFU, CCNY / Fold change vs veh, CCNY / RFU, UFL1 / Fold change vs veh, UFL1 / RFU, COG3 / Fold change vs veh, COG3 / RFU, DIAPH2 / Fold change vs veh, DIAPH2 / RFU, SKA2 / Fold change vs veh, SKA2 / RFU, AFF3 / Fold change vs veh, AFF3 / RFU, LMF1 / Fold change vs veh, LMF1 / RFU, IPO11 / Fold change vs veh, IPO11 / RFU, DFFB / Fold change vs veh, DFFB / RFU, FOXP1 / Fold change vs veh, FOXP1 / RFU, CARD8 / Fold change vs veh, CARD8 / RFU, STRN3 / Fold change vs veh, STRN3 / RFU, ADK / Fold change vs veh, ADK / RFU, RASSF2 / Fold change vs veh, RASSF2 / RFU, WIPF1 / Fold change vs veh, WIPF1 / RFU, LARP1B / Fold change vs veh, LARP1B / RFU, RASA1 / Fold change vs veh, RASA1 / RFU, RB1 / Fold change vs veh, RB1 / RFU, PPFIA1 / Fold change vs veh, PPFIA1 / RFU, MAT2A / Fold change vs veh, MAT2A / RFU, CCT5 / Fold change vs veh, CCT5 / RFU, WDR92 / Fold change vs veh, WDR92 / RFU, CUX1 / Fold change vs veh, CUX1 / RFU, TTC7A / Fold change vs veh, TTC7A / RFU, TMEM135 / Fold change vs veh, TMEM135 / RFU, DEPTOR / Fold change vs veh, DEPTOR / RFU, CPM / Fold change vs veh, CPM / RFU, DNAJB6 / Fold change vs veh, DNAJB6 / RFU, CACNA2D3 / Fold change vs veh, CACNA2D3 / RFU, DTX4 / Fold change vs veh, DTX4 / RFU, TFCP2 / Fold change vs veh, TFCP2 / RFU, GMCL1 /// GMCL1P1 / Fold change vs veh, GMCL1 /// GMCL1P1 / RFU, AEBP2 / Fold change vs veh, AEBP2 / RFU, SNHG1 /// SNORD22 /// SNORD25 /// SNORD26 /// SNORD27 /// SNORD28 /// SNORD29 /// SNORD31 / Fold change vs veh, SNHG1 /// SNORD22 /// SNORD25 /// SNORD26 /// SNORD27 /// SNORD28 /// SNORD29 /// SNORD31 / Fold change (Aza/veh), C12orf56 (ProbeSet 11735607_a_at) / Fold change (ACY-1035/veh), C12orf56 (ProbeSet 11735607_a_at) / Fold change (Aza/veh), FGFR1OP (ProbeSet 11751329_s_at) / Fold change (ACY-1035/veh), FGFR1OP (ProbeSet 11751329_s_at) / Fold change (Aza/veh), VPS36 (ProbeSet 11739960_a_at) / Fold change (ACY-1035/veh), VPS36 (ProbeSet 11739960_a_at) / RFU SYPL1 (11715823_x_at) / Fold change /veh SYPL1 (11715823_x_at) / RFU IGFBP7 (11715501_s_at) / Fold change /veh IGFBP7 (11715501_s_at) / RFU REEP3 (11722064_at) / Fold change /veh REEP3 (11722064_at) / RFU IGLL1 (11728026_x_at) / Fold change /veh IGLL1 (11728026_x_at): dose or concentration left out as unconfirmed
Details: ProbeSet 11753616_s_at; LIST B

Structure (SMILES): Nc1ccc(-c2cccs2)cc1NC(=O)c1ccc2c(c1)cc(C1CC1)n2CCN1CCOCC1 [ACY-1035]
- Fold change vs veh, ARL8B: 0.90

Reference: paper PMC5218480 (PLoS ONE, 2017)
